Here are results for three compounds from patent US20240270786A1, “STEROID COMPOUNDS” (Epirium Bio Inc., priority 2022, published 2024).

The AUC(0-inf) is the area under the concentration-time curve extrapolated to infinity. Low values mean low exposure, high ones high exposure. The term AUC(0-t) denotes exposure summed from dosing to a finite time, without extrapolation to infinity. Higher therefore signals more exposure. Broadly, the Cmax is the maximum level reached in the sampled fluid or tissue. As a reminder, the Tmax is the time from dosing to the highest level.

The data set is described as follows: Pharmacokinetics: quantitative determination of compounds in mice plasma. It is filed as in vivo, C57BL/6 Mice. The conditions noted are these: 10 mg/kg PO single dose, vehicle 10% NMP; for AUC(0-inf) / AUC(0-t) / Cmax / Tmax: C57BL/6, mouse. The procedure:
C57BL/6 Mice, Age 7-9 weeks, body weight range 20-25 g were used. The mice were fasted overnight. Mice were dosed once a day for a single day at 10 mg/kg, 10 mg/kg. 6 time-points were used for whole blood. 10% NMP was used as a vehicle. 9 animals were used per treatment, with three groups of three animals each. Group 1 had time points at 15 and 60 minutes, Group 2 had time points at 30 and 120 minutes, and Group 3 had time points at 90 and 240 minutes. An Oral (PO) route was used. Plasma and brain samples were collected (brain sample collected at terminal time point). Plasma was collected through the centrifugation of whole blood at 10,000 rpm for 10 minutes at 4° C. Samples were stored at −80° C. until processing.
1.00 mg/mL in 100% MeOH PP vials (prepared at RT yellow light) at 2-8° C. were used as stock solution. 12.22-50000 ng/mL using 80% MeOH PP vials (prepared at RT yellow light) at 2-8° C. were used as working solution. 0.98-4000 ng/mL (prepared at RT yellow light) was used for the curve range. For Compounds 26, 40, and 50, 1.00 mg/mL of Compound 53 in 100% methanol Ria vials (Prepared at RT yellow light) was used as IS stock solution, and 80 ng/mL of Compound 53 in 80% methanol (Prepared at RT yellow light) was used as IS working solution. For Compound 36, 1.00 mg/mL of Compound 47 in 100% methanol Ria vials (Prepared at RT yellow light) was used as IS stock solution, and 80 ng/mL of Compound 47 in 80% methanol (Prepared at RT yellow light) was used as IS working solution. A linear, 1/×2 fit type was used. The injection volume was 10 μL for Compounds 26 and 36, and 5 μL for Compounds 40 and 50. Mobile Phase A was 0.1% Formic Acid in water at room temperature. Mobile Phase B was 100% methanol at room temperature. R0 wash solution was 80% methanol at room temperature. R3 wash solution was IPA/MeOH/ACN/water (1:1:1:1) at room temperature. The column was Agilent Eclipse 50*2.1 mm 1.8 μm and the instrument was Shimadzu LC-40 UPLC and AB Sciez 6500+ with LCMS002.
Using a pipette, 25 μL of each sample were aliquoted (calibration curve sample, QC samples and blank matrix) to labeled 1.5 ml eppendorf. Using a pipette, 5.0 μL of IS of conc. 80 ng (Cocktail IS) was aliquoted to each standards and samples except Blank. All tubes were mixed on a multi-tube vortex for approximately 30 seconds. 50 μL of 10 mM Sodium bi-carbonate were added. 1 ml of tert-butyl methyl ether (TBME) was added. All tubes were mixed on a multi-tube vortex for approximately 5 minutes then centrifuged for 10 min at 5,000 rpm for Compounds 26 and 36 and at 10,000 rpm for Compounds 40 and 50, 4° C. The sample was kept in methanol containing dry ice for few seconds to freeze the Aqueous layer (flash freeze method). The upper organic layer was poured from the frozen tubes into the labeled 12×75-mm rial vials and evaporated to dryness under nitrogen using Liquid Evaporator (30° C., ˜15 psi, ˜10 mins). 200 μl of reconstitution solution (0.1% Formic Acid: MeOH (20:80 v/v) were added into each tube. Samples were Vortexed for 30 seconds then transferred to amber glass injection vials for injection.
After test item administration, blood samples were collected from individual animals in previously labeled Heparinised blood collection tubes. Blood samples were collected from retro orbital plexus. The time points for collection of blood samples from all the animals are; 0.25, 0.5, 1, 2 and 4 hr. The collected samples were subjected to centrifugation @ 10,000 rpm for 10 minutes at 40° C. for separation of plasma. Thereafter, plasma samples were collected in previously labeled plasma tubes. These were stored at −80° C. until analysis.

Each structure is given as a SMILES string.

For the compound `CNC(=O)[C@H]1CCC2C3CC=C4N(C)C(=O)CC[C@]4(C)C3[C@@H](O)C[C@@]21C` (stereo partly drawn) [Compound 40, (4aR,5S,6aS)-5-hydroxy-N,1,4a,6a-tetramethyl-2-oxo-2,3,4,4a,4b,5,6,6a,7,8,9,9a,9b,10-tetradecahydro-1H-indeno[5,4-f] quinoline-7-carboxamide], the T½ was 56 min, the AUC(0-inf) turned out to be 2430 ng·h/mL, the AUC(0-t) stood at 2300 ng·h/mL and the highest level (Cmax) was 2200 ng/mL. In addition, the Tmax worked out at 15 min.

`CC(C)CCNC(=O)C1CCC2C3CC=C4N(C)C(=O)CC[C@]4(C)C3[C@@H](O)C[C@]12C` (stereo partly drawn) [Compound 36, (4aR,5S,6aS)-5-hydroxy-N-isopentyl-1,4a,6a-trimethyl-2-oxo-2,3,4,4a,4b,5,6,6a,7,8,9,9a,9b,10-tetradecahydro-1H-indeno[5,4-f]quinoline-7-carboxamide]: the T½ was found to be 66.6 min, the AUC(0-inf) is 1640 ng·h/mL, the AUC(0-t) is 1500 ng·h/mL and the highest concentration (Cmax) amounted to 1960 ng/mL. Moreover, the Tmax came out at 15 min.

As to `CN1C(=O)CC[C@@]2(C)C1=CCC1C2[C@@H](O)C[C@@]2(C)C1CC[C@@H]2NC(=O)C1CC1` (stereo partly drawn) [Compound 26, N-((4aR,5S,6aS,7S)-5-hydroxy-1,4a,6a-trimethyl-2-oxo-2,3,4,4a,4b,5,6,6a,7,8,9,9a,9b,10-tetradecahydro-1H-indeno[5,4-f]quinolin-7-yl)cyclopropanecarboxamide], the T½ was 62 min, the AUC(0-inf) stood at 993 ng·h/mL, the AUC(0-t) was found to be 930 ng·h/mL and the Cmax was found to be 2130 ng/mL. The Tmax is 15 min.
